Data as given in article PMC12670160, “A drug-repurposing screen of FDA- and EMA-approved drugs identifies two NF-κB inhibitors active against eumycetoma” (Journal of Antimicrobial Chemotherapy, 2025).
Values after ≈ are worked out from the molar mass of the structure shown. Where a name gives a salt, the structure may show the parent alone.

What was measured:
M. mycetomatis [1] = test: In vitro susceptibility, averages over M. mycetomatis isolates (average metabolic activity at 2 µM, mean MIC); format: cell-based; settings: Madurella mycetomatis, 96 h, 4 days at 37°C, CellTiter-Glo, average of 3 isolates, 20% or below = inhibition
Description: M. mycetomatis isolate MM55 was used to screen the Oncode library. This strain was kindly provided by Prof. […] The three M. mycetomatis isolates were identified by ITS sequencing and maintained at −80°C at Erasmus MC. Prior to in vitro screening, isolates were cultured on Sabouraud agar plates (BD, Erembodegem, Belgium) at 37°C.
The Oncode Drug Repurposing library was based on the drug repurposing library from the Drug Repurposing Hub of the Broad Institute and recreated by the Oncode institute.[13] […] Each well of the 384-well plates contained 0.6 µL of a 200 µM stock concentration of compound, resulting in a final concentration of 2 µM when the fungus was added. […] Furthermore, this concentration could also be reached in the G. mellonella larvae.[8],[11] The prepared 384-well plates were transferred on dry ice to the Erasmus MC and stored at −80°C until they were screened.
Each plate also contained a growth control (60 µL of M. mycetomatis hyphal suspension, plus 0.6 µL of DMSO) and a negative control (60 µL of culture medium, plus 0.6 µL of DMSO). Plates were then incubated for 4 days at 37°C, after which 30 µL of CellTiter-Glo 3D Cell Viability reagent was added to every well.[19] After 25 min of incubation at room temperature, the luminescence was measured with a CytoFluor Series 4000 luminometer (PerSeptive Biosystems, Framingham, MA, USA). To determine the metabolic activity, the following formula was used:
Percentagemetabolicactivity=(Absorbancetestluminensence−AbsorbanceNCluminensence/AbsorbanceGCluminensence−AbsorbanceNCluminensence)×100
where, GC is growth control and NC is negative control. The luminescence measured for the GC is considered as 100% metabolic activity. The luminescence for the NC is considered as 0% metabolic activity.

[2] = test system: M. mycetomatis strain mm55; test: IC50 and MIC determination, CellTiter-Glo, strain mm55; format: cell-based, Madurella mycetomatis; settings: Madurella mycetomatis; for IC50: concentration inhibiting 50% of fungal hyphae growth; for MIC: concentration with complete growth inhibition
M. mycetomatis strain P1 = test: IC50 and MIC determination, CellTiter-Glo, strain P1; format: cell-based, Madurella mycetomatis; settings: Madurella mycetomatis, P1
M. mycetomatis strain I1 = test: IC50 and MIC determination, CellTiter-Glo, strain I1; format: cell-based, Madurella mycetomatis; settings: Madurella mycetomatis, I1
M. mycetomatis [3] = test: In vitro susceptibility, averages over M. mycetomatis isolates (average metabolic activity at 2 µM, mean MIC); format: cell-based, Madurella mycetomatis; settings: Madurella mycetomatis; mean/average over strains MM55, P1 and I1
[4] = test system: healthy uninfected G. mellonella larvae; settings: in vivo
Description: (§1) For in vivo experiments, sixth-week instar G. mellonella larvae were purchased from Blue-Lagoon, Maassluis, The Netherlands. The larvae were raised and kept in the dark at room temperature. Larvae without any discoloration and weighing around 500 mg were selected for experiments.
To determine the toxicity, 15 healthy uninfected larvae were injected with 20 µL of 20 µM compound as previously described.[16] […] As a control, a separate group of larvae were injected with 20 µL of PBS. Larvae were housed in Petri dishes with Whatman paper at 37°C in the dark. Survival was monitored for 10 days.

[5] = test system: M. mycetomatis MM55-infected G. mellonella larvae; test: Therapeutic efficacy in M. mycetomatis-infected G. mellonella larvae (survival, log-rank); format: in vivo, Galleria mellonella; settings: 20 µL of 20 µM at 4, 28 and 52 h post infection; 10 days
Description: as §1
The wet weight was determined and 10 mL of PBS per gram of mycelia was added. The suspension was then sonicated for 2 min to achieve a particle size of 10 µm. The fungal suspension (4 mg/40 µL) was injected into the last left pro-leg of a healthy G. mellonella larva with an insulin 29G U-100 needle to reach a final inoculum of 4 mg/larva. Larvae were placed in Petri dishes containing Whatman paper in a 37°C incubator.
A control group was also included in which M. mycetomatis-infected larvae were treated with PBS or with 1 mg/kg amphotericin B (Fungizone, Bristol Myers Squibb, Utrecht, The Netherlands). […] The treatment was repeated at 28 h post infection and 52 h post infection via different prolegs. The infection was monitored for 10 days.
To compare the survival rates between PBS treatment control and the different experimental groups a log-rank test was performed. All data were processed and performed in GraphPad Prism 10.

[6] = test system: M. mycetomatis-infected G. mellonella larvae; settings: M. mycetomatis-infected G. mellonella larvae; cited from earlier work
M. mycetomatis [7] = test system: M. mycetomatis; parameters: method as in PMID 35398930, PMID 15793113, PMID 36005544, PMID 34181477, PMID 22964246; settings: against M. mycetomatis; cited from earlier work

## CCCCC(CC)CNC(=N)NC(=N)NCCCCCCNC(=N)NC(=N)NCC(CC)CCCC (stereo not shown) [Alexidine dihydrochloride]
M. mycetomatis [1]
  activity at 2 µM: 4.4%
[2]
  IC50: 1.32 µM
  MIC: 2 µM
M. mycetomatis strain P1
  IC50: 1.78 µM
  MIC: > 2 µM
M. mycetomatis strain I1
  IC50: 0.8 µM
  MIC: > 2 µM
M. mycetomatis [3]
  MIC: > 2 µM

## Cc1ccc2c(Br)cc(Br)c(OC(=O)c3ccccc3)c2n1 [Broxaldine]
M. mycetomatis [1]
  activity at 2 µM: 4.8%
[2]
  IC50: 1.25 µM
  MIC: 2 µM (≈ 0.842 µg/mL)
M. mycetomatis strain P1
  IC50: 0.63 µM
  MIC: 1 µM (≈ 0.421 µg/mL)
M. mycetomatis strain I1
  IC50: 1.31 µM
  MIC: 2 µM (≈ 0.842 µg/mL)
[4]
  Toxicity in G. mellonella larvae at 20 µM: not toxic
[5]
  Survival of M. mycetomatis-infected larvae versus PBS: No prolonged survival

## Oc1c(Br)cc(Br)c2cccnc12 [Broxyquinoline]
M. mycetomatis [1]
  activity at 2 µM: 3.3%
[2]
  IC50: 1.6 µM
  MIC: 2 µM (≈ 0.606 µg/mL)
M. mycetomatis strain P1
  IC50: 0.56 µM
  MIC: 2 µM (≈ 0.606 µg/mL)
M. mycetomatis strain I1
  IC50: 1.29 µM
  MIC: 2 µM (≈ 0.606 µg/mL)
[4]
  Toxicity in G. mellonella larvae at 20 µM: not toxic
[5]
  Survival of M. mycetomatis-infected larvae versus PBS: No prolonged survival

## Oc1c(I)cc(Cl)c2cccnc12 [Clioquinol]
M. mycetomatis [1]
  activity at 2 µM: 0%
[2]
  IC50: 1.2 µM
  MIC: 2 µM (≈ 0.611 µg/mL)
M. mycetomatis strain P1
  IC50: 0.38 µM
  MIC: 0.5 µM (≈ 0.153 µg/mL)
M. mycetomatis strain I1
  IC50: 1.7 µM
  MIC: 2 µM (≈ 0.611 µg/mL)
[4]
  Toxicity in G. mellonella larvae at 20 µM: not toxic
[5]
  Survival of M. mycetomatis-infected larvae versus PBS: No prolonged survival

## C[C@@H](c1nc(-c2ccc(C#N)cc2)cs1)[C@](O)(Cn1cncn1)c1cc(F)ccc1F [Isavuconazole]
M. mycetomatis [1]
  activity at 2 µM: 2.1%
[2]
  IC50: 0.43 µM
  MIC: 1 µM (≈ 0.437 µg/mL)
M. mycetomatis strain P1
  IC50: < 0.03 µM
  MIC: 0.03 µM (≈ 0.0131 µg/mL)
M. mycetomatis strain I1
  IC50: 0.05 µM
  MIC: 0.06 µM (≈ 0.0262 µg/mL)

## Clc1ccc(C(Cn2ccnc2)OCc2c(Cl)cccc2Cl)c(Cl)c1 (stereo not shown) [Isoconazole nitrate (Travogen), Isoconazole nitrate]
M. mycetomatis [1]
  activity at 2 µM: 1.2%
[2]
  IC50: 1.42 µM
  MIC: 2 µM
M. mycetomatis strain P1
  IC50: 0.06 µM
  MIC: 0.5 µM
M. mycetomatis strain I1
  IC50: 0.36 µM
  MIC: 0.5 µM

## CC(=O)N1CCN(c2ccc(OCC3COC(Cn4ccnc4)(c4ccc(Cl)cc4Cl)O3)cc2)CC1 (stereo not shown) [Ketoconazole]
M. mycetomatis [1]
  activity at 2 µM: 0.9%
[2]
  IC50: 0.66 µM
  MIC: 1 µM (≈ 0.531 µg/mL)
M. mycetomatis strain P1
  IC50: 0.17 µM
  MIC: 0.25 µM (≈ 0.133 µg/mL)
M. mycetomatis strain I1
  IC50: 0.05 µM
  MIC: 0.06 µM (≈ 0.0319 µg/mL)
[6]
  larval survival: No prolonged larval survival

## N#C/C(=C1/SCC(c2ccccc2Cl)S1)n1ccnc1 (stereo not shown) [Lanoconazole]
M. mycetomatis [1]
  activity at 2 µM: 3%
[2]
  IC50: 0.04 µM
  MIC: 0.06 µM (≈ 0.0192 µg/mL)
M. mycetomatis strain P1
  IC50: < 0.03 µM
  MIC: 0.03 µM (≈ 0.0096 µg/mL)
M. mycetomatis strain I1
  IC50: < 0.03 µM
  MIC: 0.03 µM (≈ 0.0096 µg/mL)
M. mycetomatis [3]
  MIC: < 0.03 µM
M. mycetomatis [7]
  MIC50: 2 ng/mL (≈ 6.25 nM)

## N#C/C(=C1/SC[C@@H](c2ccc(Cl)cc2Cl)S1)n1ccnc1 [Luliconazole]
M. mycetomatis [1]
  activity at 2 µM: 1%
[2]
  IC50: < 0.03 µM
  MIC: 0.03 µM (≈ 0.0106 µg/mL)
M. mycetomatis strain P1
  IC50: < 0.03 µM
  MIC: 0.03 µM (≈ 0.0106 µg/mL)
M. mycetomatis strain I1
  IC50: < 0.03 µM
  MIC: 0.03 µM (≈ 0.0106 µg/mL)
M. mycetomatis [3]
  MIC: < 0.03 µM
M. mycetomatis [7]
  MIC50: 1 ng/mL (≈ 2.82 nM)

## Clc1ccc(COC(Cn2ccnc2)c2ccc(Cl)cc2Cl)c(Cl)c1 (stereo not shown) [Miconazole nitrate]
M. mycetomatis [1]
  activity at 2 µM: 1%
[2]
  MIC: 1 µM
M. mycetomatis strain P1
  MIC: 0.5 µM
M. mycetomatis strain I1
  MIC: 0.06 µM
